One data set relates to Meloidogyne incognita. Description: Meloidogyne incognita test. The data set is classed as in vivo. The settings on record: 20 ppm; lettuce; after 14 days. The procedure: To produce a suitable preparation of active ingredient, 1 part by weight of active ingredient is mixed with the stated amount of solvent and the concentrate is diluted with water to the desired concentration. Vessels are filled with sand, active ingredient solution, an egg/larvae suspension of the southern root-knot nematode (Meloidogyne incognita) and lettuce seeds. The lettuce seeds germinate and the plants develop. The galls develop on the roots. After 14 days, the nematicidal efficacy in % is determined by the formation of galls. 100% means that no galls were found; 0% means that the number of galls on the treated plants corresponds to the untreated control.

Another data set concerns Tetranychus urticae. Description: Tetranychus urticae spray test, OP-resistant. The data set is classed as in vivo. The conditions noted are these: foliar, 144 h, bean leaf discs, after 6 days, read-out: efficacy. The procedure: To produce a suitable active ingredient preparation, 1 part by weight of active ingredient is dissolved with the stated parts by weight of solvent and made up with water containing an emulsifier concentration of 1000 ppm until the desired concentration is attained. To produce further test concentrations, the preparation is diluted with emulsifier-containing water. Discs of bean leaves (Phaseolus vulgaris) infested with all stages of the greenhouse red spider mite (Tetranychus urticae) are sprayed with an active ingredient preparation of the desired concentration. After 6 days, the efficacy in % is determined. 100% means that all the spider mites have been killed; 0% means that no spider mites have been killed.

The subject of the next data set is Myzus persicae. Description: Myzus persicae spray test. The data set is classed as in vivo. The settings on record: foliar, Chinese cabbage leaf discs, after 5-6 days, read-out: efficacy. The procedure:
(§1) To produce a suitable active ingredient preparation, 1 part by weight of active ingredient is dissolved with the stated parts by weight of solvent and made up with water containing an emulsifier concentration of 1000 ppm until the desired concentration is attained. To produce further test concentrations, the preparation is diluted with emulsifier-containing water. Discs of Chinese cabbage leaves (Brassica pekinensis) infested by all stages of the green peach aphid (Myzus persicae) are sprayed with an active ingredient preparation of the desired concentration. After 5-6 days, the efficacy in % is determined. 100% means that all the aphids have been killed; 0% means that no aphids have been killed.

The test system of a further data set is Phaedon cochleariae. Briefly: Phaedon cochleariae spray test. The settings on record: foliar, 168 h, larvae on Chinese cabbage leaf discs, after 7 days, read-out: efficacy. The data set is classed as in vivo. The procedure: as §1, with “pekinensis)” for “pekinensis) infested by all stages of the green peach aphid (Myzus persicae)”, “concentration and, after drying, populated with larvae of the mustard beetle (Phaedon cochleariae).” for “concentration.”, “7” for “5-6”, “beetle larvae” for “aphids”

In another data set the test system is Spodoptera frugiperda. Briefly: Spodoptera frugiperda spray test. The data set is classed as in vivo. The settings on record: foliar, 168 h, caterpillars on maize leaf discs, after 7 days, read-out: efficacy. The procedure:
To produce a suitable active ingredient preparation, 1 part by weight of active ingredient is dissolved with the stated parts by weight of solvent and made up with water containing an emulsifier concentration of 1000 ppm until the desired concentration is attained. To produce further test concentrations, the preparation is diluted with emulsifier-containing water. Leaf discs of maize (Zea mays) are sprayed with an active ingredient preparation of the desired concentration and, after drying, populated with caterpillars of the armyworm (Spodoptera frugiperda). After 7 days, the efficacy in % is determined. 100% means that all the caterpillars have been killed; 0% means that no caterpillar has been killed.

Data set [1] in a line: log P by HPLC on reversed-phase column (EEC Directive 79/831 Annex V.A8). The conditions noted are these: reversed-phase C18 HPLC column; pH 7.8, aqueous ammonium hydrogencarbonate/acetonitrile; 55° C.; read-out: log P (neutral). The data set is classed as physicochemical. The procedure:
The log P values are measured according to EEC Directive 79/831 Annex V.A8 by HPLC (high-performance liquid chromatography) on a reversed-phase column (C 18). Temperature: 55° C. The LC-MS determination in the acidic range is effected at pH 2.7 using 0.1% aqueous formic acid and acetonitrile (contains 0.1% formic acid) as eluents; linear gradient from 10% acetonitrile to 95% acetonitrile. Called log P (HCOOH) in the table. LC-MS determination in the neutral range is effected at pH 7.8 with 0.001 molar aqueous ammonium hydrogencarbonate solution and acetonitrile as eluents; linear gradient from 10% acetonitrile to 95% acetonitrile. Called log P (neutral) in the table. Calibration is carried out using unbranched alkan-2-ones (having 3 to 16 carbon atoms) with known log P values (log P values determined on the basis of the retention times by linear interpolation between two successive alkanones).

This note sets out measurements from US10550116B2, “Fused bicyclic heterocycle derivatives as pesticides” (BAYER CROPSCIENCE AKTIENGESELLSCHAFT, priority 2015, dated 2020).

Each structure is given as a SMILES string.

For the compound `CCSc1cc2ccccc2nc1-c1nc2cc(C(F)(F)F)ccc2o1` [Example I-32], the “nematicidal efficacy (formation of galls)” value in the data set with Meloidogyne incognita turned out to be 100%.
`CC[S+]([O-])c1cc2ccccc2nc1-c1nc2cc3c(cc2[nH]1)OC(F)(F)O3` (stereo not drawn) [Example I-36]: the pest or weed control at 100 g/ha with Tetranychus urticae amounted to 90%.
Regarding `CCS(=O)(=O)c1cc2ccccc2nc1-c1cn2cnc(C(F)(F)F)cc2n1` [Example I-11, 3-(Ethylsulphonyl)-2-[7-(trifluoromethyl)imidazo[1,2-c]pyrimidin-2-yl]quinoline], the pest or weed control at 500 g/ha with Myzus persicae was determined as 70%; in the data set on Phaedon cochleariae, 100%; in the data set on Spodoptera frugiperda, 100%. The chromatographic logP in data set [1] was 2.63.
Turning to `CCS(=O)(=O)c1cc2ccccc2nc1-c1nc2cc(S(=O)(=O)C(F)(F)F)ccc2o1` [Example I-18, 2-(3-Ethylsulphonyl-2-quinolyl)-5-(trifluoromethylsulphonyl)-1,3-benzoxazole], the pest or weed control at 100 g/ha was found to be 100% in the data set with Myzus persicae, 100% with Phaedon cochleariae, 100% in the data set with Spodoptera frugiperda and 70% in the data set on Tetranychus urticae. In addition, the chromatographic logP in data set [1] came out at 3.62.
With `CCSc1cc2ccccc2nc1-c1nc2cc(C(F)(F)C(F)(F)F)cnc2n1C` [Example I-37], in the data set with Tetranychus urticae, the pest or weed control at 100 g/ha came to 90%.
Turning to `CCS(=O)(=O)c1cc2ccccc2nc1-c1nc2cc([S+]([O-])C(F)(F)F)ccc2n1C` (stereo not drawn) [Example I-23, 3-Ethylsulphonyl-2-[1-methyl-5-(trifluoromethylsulphinyl)benzimidazol-2-yl]quinoline], the pest or weed control at 100 g/ha in the data set on Myzus persicae, in the data set with Phaedon cochleariae and with Spodoptera frugiperda was 100% each time. The pest or weed control at 20 g/ha with Tetranychus urticae came out at 100%. Moreover, the chromatographic logP in data set [1] came out at 2.79.
As to `CCSc1cc2ccccc2nc1-c1nc2cc(SC(F)(F)F)ccc2n1C` [Example I-34, 3-Ethylsulphanyl-2-[1-methyl-5-(trifluoromethylsulphanyl)benzimidazol-2-yl]quinoline], the pest or weed control at 100 g/ha in the data set on Tetranychus urticae worked out at 100%. Besides, in data set [1], the chromatographic logP is 4.63.
As to `CCS(=O)(=O)c1cc2ccccc2nc1-c1nc2cc3c(cc2n1C)OC(F)(F)O3` [Example I-16, 6-(3-Ethylsulphonyl-2-quinolyl)-2,2-difluoro-7-methyl-[1,3]dioxolo[4,5-f]benzimidazole], the pest or weed control at 500 g/ha is 90% with Myzus persicae, 100% in the data set with Phaedon cochleariae and 100% in the data set on Spodoptera frugiperda. Further, the chromatographic logP in data set [1] came out at 3.39.
With `CCS(=O)(=O)c1cc2ccccc2nc1-c1nc2cc(C(F)(F)F)cnc2o1` [Example I-13], the pest or weed control at 500 g/ha with Myzus persicae came out at 100%; in the data set on Spodoptera frugiperda, 83%. In addition, the pest or weed control at 100 g/ha with Phaedon cochleariae turned out to be 100%. The chromatographic logP in data set [1] is 3.27.
Consider `CCSc1cc2ccccc2nc1-c1nc2cc(SC(F)(F)F)ccc2o1` [Example I-29, 2-(3-Ethylsulphanyl-2-quinolyl)-5-(trifluoromethylsulphanyl)-1,3-benzoxazole], for which the pest or weed control at 100 g/ha in the data set on Tetranychus urticae amounted to 70%. The chromatographic logP in data set [1] is 5.43.
In the case of `CCS(=O)(=O)c1cc2ccc(Cl)cc2nc1-c1nc2cc(C(F)(F)F)ncc2n1C` [Example I-8, 7-Chloro-3-ethylsulphonyl-2-[3-methyl-6-(trifluoromethyl)imidazo[4,5-c]pyridin-2-yl]quinoline], the pest or weed control at 500 g/ha in the data set on Myzus persicae turned out to be 90%; with Phaedon cochleariae it was 100%; in the data set on Spodoptera frugiperda, 100%. Moreover, the chromatographic logP in data set [1] worked out at 2.63.
For the compound `CCS(=O)(=O)c1cc2ccccc2nc1-c1nc2cc(C(F)(F)F)nnc2n1C` [Example I-22], the pest or weed control at 100 g/ha in the data set on Myzus persicae was 100%; in the data set on Spodoptera frugiperda it was 100%; in the data set with Tetranychus urticae it was 90%.
On to `CCSc1c(-c2nc3cc(C(F)(F)F)ncc3n2C)ncc2ccccc12` [I′-42], for which the values for the pest or weed control at 500 g/ha in the data set with Myzus persicae and in the data set on Tetranychus urticae (500 g/ha) were 90% and 70%, respectively.
`CCS(=O)(=O)c1cc2ccccc2nc1-c1nc2cc(SC(F)(F)F)ccc2o1` [Example I-14, 2-(3-Ethylsulphonyl-2-quinolyl)-5-(trifluoromethylsulphanyl)-1,3-benzoxazole]: the results for the pest or weed control at 500 g/ha in the data set on Myzus persicae, in the data set with Phaedon cochleariae and in the data set with Spodoptera frugiperda were 90%, 100% and 100%, respectively. Moreover, the chromatographic logP in data set [1] came out at 4.17.
As to `CCSc1nc2ccccc2nc1-c1nc2cc(C(F)(F)F)ncc2n1C` [Example I-4, 2-Ethylsulphanyl-3-[3-methyl-6-(trifluoromethyl)imidazo[4,5-c]pyridin-2-yl]quinoxaline], the pest or weed control at 100 g/ha in the data set on Tetranychus urticae turned out to be 70%. For the same compound, the chromatographic logP in data set [1] came out at 4.1.
As for `CCS(=O)(=O)c1cc2ccccc2nc1-c1nc2cc(SC(F)(F)F)ccc2n1C` [Example I-21, 3-Ethylsulphonyl-2-[1-methyl-5-(trifluoromethylsulphanyl)benzimidazol-2-yl]quinoline], the pest or weed control at 100 g/ha in the data set on Myzus persicae, with Phaedon cochleariae and in the data set with Spodoptera frugiperda was 100% each time. In addition, in the data set with Tetranychus urticae, the pest or weed control at 20 g/ha was determined as 70%. Also, the chromatographic logP in data set [1] amounted to 3.96.
On to `CCS(=O)(=O)c1ccc2nc(-c3nc4cc(C(F)(F)F)ncc4n3C)c(S(=O)(=O)CC)cc2c1` [Example I-6, 3,6-Bis(ethylsulphonyl)-2-[3-methyl-6-(trifluoromethyl)imidazo[4,5-c]pyridin-2-yl]quinoline], for which the pest or weed control at 500 g/ha in the data set on Myzus persicae came out at 90%; in the data set on Phaedon cochleariae, 83%; with Spodoptera frugiperda it was 100%. Besides, the chromatographic logP in data set [1] turned out to be 2.58.
In the case of `CCS(=O)(=O)c1cc2ccccc2nc1-c1nc2cc(C(F)(F)C(F)(F)F)ncc2n1C` [Example I-10], the pest or weed control at 500 g/ha in the data set with Myzus persicae was found to be 90%; in the data set on Phaedon cochleariae, 100%; in the data set on Spodoptera frugiperda, 100%.
Turning to `CCS(=O)(=O)c1cc2ccccc2nc1-c1nc2cc([S+]([O-])C(F)(F)F)ccc2o1` (stereo not drawn) [Example I-19, 2-(3-Ethylsulphonyl-2-quinolyl)-5-(trifluoromethylsulphinyl)-1,3-benzoxazole], the pest or weed control at 100 g/ha with Myzus persicae amounted to 90%; in the data set on Phaedon cochleariae it was 100%; in the data set on Spodoptera frugiperda, 100%. Further, the chromatographic logP in data set [1] came to 3.05.
With `CCSc1cnc2nc(-c3nc4cc(C(F)(F)F)ncc4n3C)c(SCC)cc2c1` [Example I-40, 3,6-Bis(ethylsulphanyl)-2-[3-methyl-6-(trifluoromethyl)-3H-imidazo[4,5-c]pyridin-2-yl]-1,8-naphthyridine], in the data set on Meloidogyne incognita, the “nematicidal efficacy (formation of galls)” value is reported as 90%. Further, in the data set with Tetranychus urticae, the pest or weed control at 20 g/ha was found to be 70%. Also, the chromatographic logP in data set [1] was found to be 3.23.
